These results are taken from US6011000A, “Compositions for the treatment of blood disorders” (priority 1995, dated 2000).

One series has as its system human erythroid cells. As to the kind of experiment: DNA fragmentation by flow cytometry (degradation of DNA). The conditions noted are these: for Degraded DNA: 4 days, control 26%, 22%; for proportion of degraded DNA: 1.0 mM to 2.0 mM, untreated 26%; for DNA fragmentation / cell viability / DNA integrity: DNA fragmentation assays. The class given is cell-based. As for the experimental part: Such activities might limit their utility for treatment of anemias such as occur in thalassemia, but alternatively would be useful for anticancer effects. To determine cell viability, human erythroid cells were cultured in the presence and absence of these compounds for 4 days and the amount of DNA fragmentation which occurred was measured.
Flow cytometric determination of DNA profiles and DNA fragmentation were determined. Cytometric analysis was performed with a FACScan (Becton Dickenson Instruments; Columbia, Md.). The data analysis and display were performed using the Cell-Fit software program. Approximately 0.5×10^6 cells were washed twice with PBS and resuspended in 1 ml of 1% sodium citrate, 0.1% Triton X-100 and 50 μg of propidium iodide/ml. Resulting permeabilized cells were kept in the dark at 4° C. overnight before DNA profile or DNA fragmentation analysis (Table 4).

Series [1] has as its system system A transport (K562 cells and nucleated erythroblasts from fetal liver). The series is described as follows: Effects on system A amino acid transport (3H-MAIB uptake). The class given is cell-based, human. As for the experimental part: Inhibition of nutrient uptake is undesirable for treatment of anemias. Methyl aminoisobutyric acid (MAIB) labeled with tritium (^3 H) is normally taken up by system A amino acid transport. Cold (unlabeled) compounds were added to cultures containing ^3 H-MAIB and incubated for 1 hour. Cells were harvested and the amount of ^3 H taken up by cells was quantitated by scintillation counting.

The subject of series [2] is erythroid cells (peripheral blood). As to the kind of experiment: Erythroid cell viability by fluorescent staining (Calcein-AM), FIG. 2. It is filed as cell-based, human. The following applies: vs untreated controls. As to the method: FIG. 2 Peripheral blood cell viability after incubation with arginine butyrate, dihydrocinnamic acid, phenoxyacetic acid and butyric acid ethyl ester.
Compositions were tested for the ability to directly stimulate erythroid cell growth. Cell growth stimulation is a useful property for an agent to be used to treat anemias and distinguishes such agents from the cytotoxic drugs currently being tested for treatment of hemoglobinopathies. Cell viability analyses were performed using fluorescent staining to detect living cells. Cells were in log phase of growth in 6-well dishes when used in proliferation assays. For enumeration of living cells, wells were washed once with medium to remove nonadherent or dead cells. Remaining live cells were labeled with 2 μM 2',7'-bis-(carboxyethyl)-5-(and 6)-carboxy-fluorescein acetoxy-methyl ester (Calcein-AM) (Molecular Probes; Eugene, Oreg.) for 20 minutes at 37° C. and washed once. Fluorescence intensity of live cells was read on a CytoFluor 2300 Fluorescence Plate Scanner (Millipore; Bedford, Mass.) at excitation and emission wavelengths of 485 and 530 nm, respectively. The fluorescence intensity of a well was proportional to the number of living cells in the well. Background fluorescence was measured separately for each plate and subtracted from all readings. Each experiment was performed in triplicate or quadruplicate. The standard deviation (SD) of repetitive readings was less than 30% of the mean. Results are depicted in FIG. 2.

A further series concerns K562. The series is described as follows: Growth of human erythroid cell line K562. It is filed as cell-based. The conditions noted are these: for growth of K562: over 3 days. As to the method:
Such activities might limit their utility for treatment of anemias such as occur in thalassemia, but alternatively would be useful for anticancer effects. […]
Cell viability analyses were performed using fluorescent staining to detect living cells. Cells were in log phase of growth in 6-well dishes when used in proliferation assays. For enumeration of living cells, wells were washed once with medium to remove nonadherent or dead cells. Remaining live cells were labeled with Calcein-AM for 20 minutes at 37° C. and washed once. Fluorescence intensity of adherent live cells was read on a CytoFluor 2300 Fluorescence Plate Scanner (Millipore; Bedford, Mass.) at excitation and emission wavelengths of 485 and 530 nm, respectively. The fluorescence intensity of a well was proportional to the number of living cells in the well. Background fluorescence was measured separately for each plate and subtracted from all readings. Each experiment was performed in triplicate or quadruplicate. The standard deviation (SD) of repetitive readings was less than 30% of the mean.
At higher concentrations, still easily achievable in vivo, arginine butyrate (0.5 mM) and dihydrocinnamic acid (greater than 0.5 mM) inhibited growth of this tumor cell line by approximately 50%. Therefore, these compounds are also useful as anti-tumor agents.

Another series has as its system K562 cells. As to the kind of experiment: Dose response of cell growth, trypan blue exclusion (FIG. 3). The class given is cell-based, human. The conditions noted are these: day 4. As to the method: FIG. 3 Cell viability as determined by the comparative numbers of total and viable K562 cells in the presence of increasing concentrations of (A) phenoxyacetic acid, (B) dihydrocinnamic acid, (C) butyric acid ethyl ester, (D) arginine butyrate, and (E) isobutyramide.
Dose response curves at dosages of up to 2.0 mM were also determined for phenoxyacetic acid (PAA; FIG. 3A), dihydrocinnamic acid (DHC; FIG. 3B), butyric acid ethyl ester (BAEE; FIG. 3C), arginine butyrate (AB; FIG. 3D) and isobutyramide (IBT; FIG. 3E). Cells were counted on day 4 of treatment and viable cells identified by trypan blue exclusion.

The subject of another series is anemic baboon. The series is described as follows: In vivo reticulocyte proliferation, globin expression and blood counts in anemic (phlebotomized) baboons. The procedure, abridged:
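Juvenile female baboons kept at 7.0–7.5 g/dl haemoglobin by daily phlebotomy got compounds sequentially, with wash-out until reticulocytes returned to baseline; each animal served as its own control. F-reticulocytes were measured by dual-antibody FACS, and γ/(γ+β) globin synthesis by ³H-leucine labelling and column chromatography. Blood counts were taken, unadjusted for phlebotomy.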

The mark [3] stands for this setting: 1,000 to 1,500 mg/kg/day i.v., 4 days.

Where two headings read alike, the source gives them in different places.

Take `CCCC(=O)O` [AB, arginine butyrate]: the “Degraded DNA” value in the series with human erythroid cells (0.5 mM) is 32%; in the series on human erythroid cells (1.0 mM), 34%; with human erythroid cells (2.0 mM), 44%. Moreover, the “proportion of degraded DNA” value in the series on human erythroid cells is reported as 44%. The “DNA fragmentation / cell viability / DNA integrity” value in the series on human erythroid cells is on record as “decrease cell viability”. The “system A (neutral) amino acid transport” value in series [1] is “inhibited the neutral amino acid transport mechanism”. Moreover, the “erythroid cell growth and proliferation” value in series [2] (0.2 mM) and in series [2] (0.5 mM) was “inhibited proliferation” each time. Further, the “growth of K562” value in the series with K562 (0.2 mM) is on record as “either did not inhibit, or slightly enhanced growth”. Also, the inhibition (usually the percentage by which the read-out fell short of the control) at 500 µM in the series with K562 (Homo sapiens, K562, 0.5 mM) was approximately 50%. The cell growth entry in the series with K562 cells (concentrations above 0.2 mM) is given as “suppressed cell growth”. For the same molecule, the response to treatment entry with anemic baboon (1,000 mg/kg for 5 days) and with anemic baboon (2,000 mg/kg for 3 days) was “had not responded” in each case.
As to `O=C(O)COc1ccccc1` [PAA, Phenoxyacetic acid], in the series with human erythroid cells, the “proportion of degraded DNA” value amounted to 20.6% and the “DNA fragmentation / cell viability / DNA integrity” value was “reduce DNA fragmentation”. Further, in the series on human erythroid cells (2.0 mM), the “Degraded DNA” value is 20.6%. The “system A (neutral) amino acid transport” value in series [1] (1 hour, 3H-MAIB (FIG. 12), listed as phenoxy acetic acid) is “caused no significant inhibition and actually increased uptake of nutrients into cells”. In series [1] (1 hour, 3H-MAIB (FIG. 12), listed as phenoxyacetic acid), the “system A (neutral) amino acid transport” value is reported as “do not significantly alter system A transport of amino acids”. Also, in series [2] (0.5 mM), the “erythroid cell growth and proliferation” value was “either had no effect or stimulated erythroid cell growth and proliferation”. For the same molecule, the “growth of K562” value in the series with K562 (0.5 mM) was “either did not inhibit, or slightly enhanced growth”. The proliferation entry with K562 cells (up to 2.0 mM) is “did not significantly inhibit proliferation”. Further, in the series on anemic baboon (1,500 mg/kg infused daily, 5 days), the “duration of effect after drug was discontinued” value was “maintained itself for two days after drug was discontinued and slowly declined thereafter”. Further, the Total hemoglobin in the series with anemic baboon (1,500 mg/kg infused daily, 5 days (FIG. 7), from 6.8) was 7.6 grams/dl. For the same molecule, in the series with anemic baboon (1,500 mg/kg infused daily, 5 days, from 1.9%), the reticulocytes is given as 9.2 % of all red blood cells. In the series on anemic baboon (1,500 mg/kg infused daily, 5 days, from 6.9), the “white blood cell count” value is recorded as 9.5 10^3 cells/μl. Besides, in the series on anemic baboon (1,500 mg/kg infused daily, 5 days, from 22%), the “packed red blood cell volume” value is 25.4%. The molecule also showed a Fetal reticulocytes in the series with anemic baboon (500, 1,000, 1,500 mg/kg infused, after 3 days (FIG. 9), from 12%) of 27%. In the series on anemic baboon (setting [3]), the “Fetal reticulocytes, increase above baseline” value is reported as 800%; the “Fetal reticulocytes, increase above baseline (fold)” value is given as “eight-fold”; the “increase in output of fetal globin production over basal levels” value is recorded as 4,000%. Further, the Fetal reticulocytes in the series with anemic baboon (1,000 to 1,500 mg/kg/day i.v., 4 days, another juvenile baboon, from 2%) amounted to 16%. Also, the “Fetal globin protein synthesis” value with anemic baboon (1,000 to 1,500 mg/kg/day i.v., 4 days, from 0%) is given as 5%.
